Here are results for 30 compounds from patent US7902181B2, “Compounds 010” (AstraZeneca AB, priority 2007, dated 2011).

Counter-ions that a name gives are not always drawn.

This assay deals with Recombinant Human (rh) DPP1 (Homo sapiens, UniProt P53634). Briefly: Fluorescence Assay for Recombinant Human (rh) DPP1. In kind it is biochemical. Particulars: rhDPP1; substrate H-Gly-Arg-AMC; pH5.0; 30 min pre-incubation, 60 min reaction at 22° C.; highest concentration 10 μM; read-out: DPP1 activity, pIC50 (converted). Here is the method: Fluorescence Assay for Recombinant Human (rh) DPP1
The activity of DPP1 was determined by measuring the enzymatic release of aminomethyl coumarin (AMC) from the peptide substrate (H-Gly-Arg-AMC), which leads to an increase in fluorescence intensity at λex=350 nm and λem=450 nm. The assay was carried out in black 384 well plates in a final volume of 50 μl at 22° C. The assay conditions contained the following: 25 mM piperazine buffer pH5.0; 50 mM NaCl, 5 mM DTT; 0.01% (v/v) Triton X-100; 100 μM H-Gly-Arg-AMC and rhDPP1 ([…]). Potential inhibitors were made up in DMSO and then diluted in the assay to give a final concentration of 1% (v/v) DMSO. A 12-point half-log dilution of the inhibitors (highest concentration 10 μM) was tested and the pIC50 determined using a 4-parameter logistic equation in a non-linear curve fitting routine. A standard DPP1 inhibitor (vinyl sulfone, see below) was used as a positive control in the assay. Routinely, inhibitors were pre-incubated with rhDPP1 for 30 min prior to the addition of the peptide substrate to start the reaction for a further 60 min at 22° C. After that the plates were immediately read in a fluorescence plate reader using the above emission and excitation wavelengths [modified from Kam, C M, Gotz, M G, Koot, G, McGuire, M J, Thiele, D L, Hudig, D & Powers, J C (2004). Arch Biochem Biophys, 427, 123-134 & McGuire, M J, Lipsky, P E & Thiele, D L (1992). Arch Biochem Biophys, 295, 280-288].

Sequence of Recombinant Human (rh) DPP1 (P53634 25-463): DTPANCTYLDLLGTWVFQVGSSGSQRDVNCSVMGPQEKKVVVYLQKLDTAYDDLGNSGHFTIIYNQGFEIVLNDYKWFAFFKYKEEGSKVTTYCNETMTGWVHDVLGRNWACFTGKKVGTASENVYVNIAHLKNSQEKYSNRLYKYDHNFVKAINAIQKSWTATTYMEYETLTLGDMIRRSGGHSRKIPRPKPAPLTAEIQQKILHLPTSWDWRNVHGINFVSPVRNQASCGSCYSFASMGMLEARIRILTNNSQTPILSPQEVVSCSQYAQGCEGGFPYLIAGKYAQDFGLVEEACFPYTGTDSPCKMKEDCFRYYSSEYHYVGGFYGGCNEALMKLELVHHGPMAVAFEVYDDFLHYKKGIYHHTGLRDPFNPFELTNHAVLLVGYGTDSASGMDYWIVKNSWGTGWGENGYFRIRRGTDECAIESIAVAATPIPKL

In the case of `COCCn1c(=O)sc2ccc(-c3ccc(C[C@@H](C#N)NC(=O)[C@@H]4CCCCN4)cc3)cc21` [Example 55, (S)-N-((S)-1-cyano-2-(4-(3-(2-methoxyethyl)-2-oxo-2,3-dihydrobenzo[d]thiazol-5-yl)phenyl)ethyl)piperidine-2-carboxamide], the IC50 was 5.01 nM.
With `N#Cc1ccc(-c2ccc(C[C@@H](C#N)NC(=O)[C@@H]3CCCCN3)cc2)cc1F` [Example 56, (S)-N-((S)-1-Cyano-2-(4′-cyano-3′-fluorobiphenyl-4-yl)ethyl)piperidine-2-carboxamide], the IC50 is 10 nM.
Consider `CSc1cc(-c2ccc(C[C@@H](C#N)NC(=O)[C@@H]3CCCCN3)cc2)ccc1C#N` [Example 57, (S)-N-((S)-1-Cyano-2-(4′-cyano-3′-(methylthio)biphenyl-4-yl)ethyl)-piperidine-2-carboxamide], for which the IC50 is 3.16 nM.
Consider `CS(=O)(=O)c1cc(-c2ccc(C[C@@H](C#N)NC(=O)[C@@H]3CCCCN3)cc2)ccc1C#N` [Example 58, (S)-N-((S)-1-Cyano-2-(4′-cyano-3′-(methylsulfonyl)biphenyl-4-yl)ethyl)piperidine-2-carboxamide], for which the IC50 was 15.8 nM.
Then `CCS(=O)(=O)c1cc(-c2ccc(C[C@@H](C#N)NC(=O)[C@@H]3CCCCN3)cc2)ccc1C#N` [Example 59, (S)-N-((S)-1-Cyano-2-(4′-cyano-3′-(ethylsulfonyl)biphenyl-4-yl)ethyl)piperidine-2-carboxamide], with 15.8 nM; and `CCCS(=O)(=O)c1cc(-c2ccc(C[C@@H](C#N)NC(=O)[C@@H]3CCCCN3)cc2)ccc1C#N` [Example 60, (S)-N-((S)-1-Cyano-2-(4′-cyano-3′-(propylsulfonyl)biphenyl-4-yl)ethyl)piperidine-2-carboxamide], with 20 nM.
In the case of `C[S+]([O-])c1cc(-c2ccc(C[C@@H](C#N)NC(=O)[C@@H]3CCCCN3)cc2)ccc1C(N)=O` (stereo partly drawn) [Example 61, (2S)-N-((1S)-2-(4′-Carbamoyl-3′-(methylsulfinyl)biphenyl-4-yl)-1-cyanoethyl)piperidine-2-carboxamide], the IC50 was 39.8 nM.
As for `Cc1nccn1-c1cc(-c2ccc(C[C@@H](C#N)NC(=O)[C@@H]3CCCCN3)cc2)ccc1C#N` [Example 62, (2S)-N-((1S)-1-Cyano-2-(4′-cyano-3′-(2-methyl-1H-imidazol-1-yl)biphenyl-4-yl)ethyl)piperidine-2-carboxamide], the IC50 is 15.8 nM.
Then `CSc1ccc(-c2ccc(C[C@@H](C#N)NC(=O)[C@@H]3CCCCN3)cc2)cc1C#N` [Example 63, (S)-N-((S)-1-cyano-2-(3′-cyano-4′-(methylthio)biphenyl-4-yl)ethyl)piperidine-2-carboxamide], with 7.94 nM; and `CS(=O)(=O)c1ccc(-c2ccc(C[C@@H](C#N)NC(=O)[C@@H]3CCCCN3)cc2)cc1C#N` [Example 64, (S)-N-((S)-1-Cyano-2-(3′-cyano-4′-(methylsulfonyl)biphenyl-4-yl)ethyl)piperidine-2-carboxamide], with 10 nM.
Then `Cn1c(=O)sc2ccc(-c3ccc(C[C@@H](C#N)NC(=O)[C@@H]4CCCCN4)cc3)cc21` [Example 66, (S)-N-((S)-1-Cyano-2-(4-(3-methyl-2-oxo-2,3-dihydrobenzo[d]thiazol-5-yl)phenyl)ethyl) piperidine-2-carboxamide], with 2 nM; and `N#C[C@H](Cc1ccc(-c2ccc3c(c2)CNS3(=O)=O)cc1)NC(=O)[C@@H]1CCCCN1` [Example 67, (2S)-N-{(1S)-1-cyano-2-[4-(1,1-dioxido-2,3-dihydro-1,2-benzisothiazol-5-yl)phenyl]ethyl} piperidine-2-carboxamide], with 10 nM; and `N#C[C@H](Cc1ccc(-c2ccc3c(c2)SCC(=O)N3)cc1)NC(=O)[C@@H]1CCCCN1` [Example 68, (S)-N-((S)-1-Cyano-2-(4-(3-oxo-3,4-dihydro-2H-benzo[b][1,4]thia-zin-7-yl)phenyl)ethyl) piperidine-2-carboxamide], with 15.8 nM.
As to `CN1Cc2cc(-c3ccc(C[C@@H](C#N)NC(=O)[C@@H]4CCCCN4)cc3)ccc2S1(=O)=O` [Example 69], the IC50 was 12.6 nM.
With `CCc1ccc(-c2ccc(C[C@@H](C#N)NC(=O)[C@@H]3CCCCN3)cc2)cc1` [Example 70, (S)-N-((S)-1-Cyano-2-(4′-ethylbiphenyl-4-yl)ethyl)piperidine-2-carboxamide Trifluoroacetate], the IC50 was 20 nM.
The result for `CNS(=O)(=O)c1ccc(-c2ccc(C[C@@H](C#N)NC(=O)[C@@H]3CCCCN3)cc2)cc1` [Example 71, (S)-N-((S)-1-Cyano-2-(4′-(N-methylsulfamoyl)biphenyl-4-yl)ethyl)piperidine-2-carboxamide Trifluoroacetate] reads 6.31 nM; that for `N#C[C@H](Cc1ccc(-c2ccc(S(=O)(=O)N3CCC3)cc2)cc1)NC(=O)[C@@H]1CCCCN1` [Example 72, (S)-N-((S)-2-(4′-(Azetidin-1-ylsulfonyl)biphenyl-4-yl)-1-cyanoethyl)piperidine-2-carboxamide Trifluoroacetate], 3.98 nM; that for `N#C[C@H](Cc1ccc(-c2ccc(S(=O)(=O)NCCO)cc2)cc1)NC(=O)[C@@H]1CCCCN1` [Example 73, (S)-N-((S)-1-Cyano-2-(4′-(N-(2-hydroxyethyl)sulfamoyl)biphenyl-4-yl)ethyl)piperidine-2-carboxamide], 10 nM.
As to `CNC(=O)c1ccc(-c2ccc(C[C@@H](C#N)NC(=O)[C@@H]3CCCCN3)cc2)cc1` [Example 74, (S)-N-((S)-1-Cyano-2-(4′-(methylcarbamoyl)biphenyl-4-yl)ethyl)piperidine-2-carboxamide Trifluoroacetate], the IC50 is 100 nM.
As to `N#C[C@H](Cc1ccc(-c2ccc(C(=O)N3CCCC3)cc2)cc1)NC(=O)[C@@H]1CCCCN1` [Example 75, (S)-N-((S)-1-Cyano-2-(4′-(pyrrolidine-1-carbonyl)biphenyl-4-yl)ethyl)piperidine-2-carboxamide Trifluoroacetate], the IC50 is 200 nM.
Then `CN1CCN(C(=O)c2ccc(-c3ccc(C[C@@H](C#N)NC(=O)[C@@H]4CCCCN4)cc3)cc2)CC1` [Example 76, (S)-N-((S)-1-Cyano-2-(4′-(4-methylpiperazine-1-carbonyl)biphenyl-4-yl)ethyl)piperidine-2-carboxamide Trifluoroacetate], with 158 nM; and `N#Cc1ccc(-c2ccc(C[C@@H](C#N)NC(=O)[C@@H]3CCCCN3)cn2)cc1` [Example 77, (S)-N-((S)-1-Cyano-2-(6-(4-cyanophenyl)pyridin-3-yl)ethyl)piperidine-2-carboxamide Trifluoroacetate], with 31.6 nM; and `N#Cc1cccc(-c2ccc(C[C@@H](C#N)NC(=O)[C@@H]3CCCCN3)cn2)c1` [Example 78, (S)-N-((S)-1-Cyano-2-(6-(3-cyanophenyl)pyridin-3-yl)ethyl)piperidine-2-carboxamide Trifluoroacetate], with 100 nM.
`N#C[C@H](Cc1ccc(-c2ccccc2O)nc1)NC(=O)[C@@H]1CCCCN1` [Example 79, (S)-N-((S)-1-Cyano-2-(6-(2-hydroxyphenyl)pyridin-3-yl)ethyl)piperidine-2-carboxamide]: the IC50 is 316 nM.
For the compound `CN(C)S(=O)(=O)c1ccc(-c2ccc(C[C@@H](C#N)NC(=O)[C@@H]3CCCCN3)cn2)cc1` [Example 80, (S)-N-((S)-1-Cyano-2-(6-(4-(N,N-dimethylsulfamoyl)phenyl)pyridin-3-yl)ethyl)piperidine-2-carboxamide Trifluoroacetate], the IC50 is 31.6 nM.
Then `N#C[C@H](Cc1ccc(-c2ccc(C(F)(F)F)cc2)cc1)NC(=O)[C@@H]1CCCCN1` [Example 82, (S)-N-((S)-1-Cyano-2-(4′-(trifluoromethyl)biphenyl-4-yl)ethyl)piperidine-2-carboxamide Trifluoroacetate], with 5.01 nM.
For the compound `N#C[C@H](Cc1ccc(-c2cccc(C(=O)N3CCCCC3)c2)cc1)NC(=O)[C@@H]1CCCCN1` [Example 83, (S)-N-((S)-1-Cyano-2-(3′-(piperidine-1-carbonyl)biphenyl-4-yl)ethyl)piperidine-2-carboxamide Trifluoroacetate], the IC50 was 200 nM.
The result for `N#C[C@H](Cc1ccc(-c2cccc(C(=O)Nc3nccs3)c2)cc1)NC(=O)[C@@H]1CCCCN1` [Example 84, (S)-N-((S)-1-Cyano-2-(3′-(thiazol-2-ylcarbamoyl)biphenyl-4-yl)ethyl)piperidine-2-carboxamide Trifluoroacetate] reads 25.1 nM; that for `N#CCCNC(=O)c1cccc(-c2ccc(C[C@@H](C#N)NC(=O)[C@@H]3CCCCN3)cc2)c1` [Example 85, (S)-N-((S)-1-Cyano-2-(3′-(2-cyanoethylcarbamoyl)biphenyl-4-yl)ethyl)piperidine-2-carboxamide], 126 nM; that for `N#C[C@H](Cc1ccc(-c2cccc(CC(N)=O)c2)cc1)NC(=O)[C@@H]1CCCCN1` [Example 86, (S)-N-((S)-2-(3′-(2-amino-2-oxoethyl)biphenyl-4-yl)-1-cyanoethyl)piperidine-2-carboxamide Trifluoroacetate], 79.4 nM.
